From PubChem BioAssay AID463199 (Broad Institute, 2010) come the findings set out here.

By AC50 is commonly meant the concentration giving half of the maximal activity seen.

Calls of active or inactive are those of the source.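 How the source made its calls: active means AC50, the dose giving half-maximal effect, exceeds a fixed cutoff for a compound that rescues yeast growth under heat; inactive means the rest, inconclusive results apart.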 Bounds are passed on as bounds.

The assay concerns S. cerevisiae Burl-1 ts mutant growth, BacTiter-Glo, 38.5C 24 h. In words: growth induction of Burl-1 ts yeast mutant, dose response, counter-screen for SUMOylation pathway inhibitor project, whole organism, S. cerevisiae, luminescence (AID 463199). A general note: A counterscreen serves to expose hits that act by an unwanted route or on another target.

Take `Cc1ccc(S(=O)(=O)/N=C(/Nc2ccc([N+](=O)[O-])cc2[N+](=O)[O-])c2ccccc2)cc1`: the AC50 was > 42 µM (inactive).

As to `CNC(=O)COC(=O)c1cc(-c2ccco2)nc2ccccc12`, the AC50 was > 42 µM (inactive).

Take `O=C(CCCNC(=O)/C(=C/c1ccccc1F)NC(=O)c1ccccc1)OCc1ccccc1`: the AC50 is > 42 µM (inactive).

For `CCCCCCOc1ccc(N2C(=O)CC(N3CCC(C(=O)OCC)CC3)C2=O)cc1` (centres undefined), the AC50 is > 42 µM (inactive).

On to `COc1cccc(NC(=O)Nc2cc(C(=O)NC(C)C)ccc2N2CC3CC(C2)c2cccc(=O)n2C3)c1` (centres undefined), for which the AC50 is > 42 µM (inactive).

Turning to `CC1(C)CC(=O)C(CC2CCCCC2=O)C(=O)C1` (centres undefined), the AC50 was > 42 µM (inactive).

On to `CCOc1ccc(NC(=O)C2CC(=O)N3CCCN=C3S2)cc1` (centres undefined), for which the AC50 was > 42 µM (inactive).

As to `O=C1CCCN1CCC1CCN(C2CC(=O)N(c3ccc(Cl)cc3)C2=O)CC1` (centres undefined), the AC50 is > 42 µM (inactive).

As to `CCOc1cc(S(=O)(=O)NCc2ccc3c(c2)OCO3)c(C)cc1C`, the AC50 is > 42 µM (inactive).

With `CCOc1ccc(Cn2c(SCCCCC#N)nc3c2c(=O)n(C)c(=O)n3C)cc1OCC`, the AC50 was > 42 µM (inactive).

On to `CNC(=O)Nc1cc(NC(=O)NC)cc(C(F)(F)F)c1`, for which the AC50 was > 42 µM (inactive).

As for `COc1ccc(NC(=O)Cn2nnc(C(=O)Nc3ccc(F)c(Cl)c3)c2N)cc1`, the AC50 is > 42 µM (inactive).

As to `Cc1ccc(N/N=C2/CCCNC2=O)cc1`, the AC50 was > 42 µM (inactive).

For the compound `Cc1cc(NC(=O)CCC(=O)N(c2cccnc2)C(C(=O)NC2CCCC2)c2ccccc2)no1` (centres undefined), the AC50 was > 42 µM (inactive).

As for `COc1ccc(/C=C2/SC(=O)N(NS(=O)(=O)c3ccccc3)C2=S)cc1OC`, the AC50 was > 42 µM (inactive).

As for `CCCCNS(=O)(=O)c1ccc2c(c1)oc(=O)n2CC(=O)OCC`, the AC50 is > 42 µM (inactive).

On to `CC1c2cc3c(cc2CCN1CC(=O)Nc1ccccc1)OCCCO3` (centres undefined), for which the AC50 was > 42 µM (inactive).

`Cc1ccccc1-n1ncc2c([N+](=O)[O-])cc([N+](=O)[O-])cc21`: the AC50 was > 42 µM (inactive).

For `COc1cccc(-n2c(Cc3cc(=O)[nH]c(=O)[nH]3)nnc2SCc2cccnc2)c1`, the AC50 is > 42 µM (inactive).

On to `CC[n+]1c(/C=C/N(C)c2ccccc2)n(-c2ccccc2)c2ccc(-c3nc4ccccc4s3)cc21`, for which the AC50 is > 42 µM (inactive).

For `O=C(CSc1cccc[n+]1[O-])N1CCc2ccccc21`, the AC50 is > 42 µM (inactive).

As for `Cc1c(NC(=O)c2ccc(N(C)S(C)(=O)=O)cc2)c(=O)n(-c2ccccc2)n1C`, the AC50 is > 42 µM (inactive).

For `CCCOc1ccccc1C1NC(=O)NC(C)=C1C(=O)OCCOCC` (centres undefined), the AC50 was > 42 µM (inactive).

Take `Cc1ccc(-n2nnnc2C(Cl)(Cl)c2nnnn2-c2ccc(C)cc2)cc1`: the AC50 was > 42 µM (inactive).

On to `CC1CN(Cc2ccccc2)c2nc3c(c(=O)[nH]c(=O)n3C)n2C1` (centres undefined), for which the AC50 is > 42 µM (inactive).

With `O=C(NCc1ccccn1)C1CC(c2ccc(Cl)c(Cl)c2)=NO1` (centres undefined), the AC50 is > 42 µM (inactive).

Regarding `Cc1ccc(S(=O)(=O)NCC(=O)OCC(=O)c2ccc(Br)s2)cc1`, the AC50 is > 42 µM (inactive).

Consider `Cc1c(NP(=O)(c2ccc(Br)cc2)c2ccc(Br)cc2)c(=O)n(-c2ccccc2)n1C`, for which the AC50 was > 42 µM (inactive).

Regarding `CC(NC(=O)c1cccs1)c1ccc(Br)cc1` (centres undefined), the AC50 was > 42 µM (inactive).

Turning to `COc1ccc(-c2nc(C#N)c(NC(C)c3ccccc3)o2)cc1OC` (centres undefined), the AC50 was > 42 µM (inactive).

Take `O=C(NC1CCCCC1)C(c1ccncc1)N(Cc1ccc2c(c1)OCO2)C(=O)C(F)(F)F` (centres undefined): the AC50 was > 42 µM (inactive).

Consider `C[C@H]1CN=C(Nc2ccccc2)N1CCC1CCCC1`, for which the AC50 was > 42 µM (inactive).

Regarding `CC1CC(C)(C)NC(=S)N1CC(=O)NCc1ccc(F)cc1` (centres undefined), the AC50 was > 42 µM (inactive).

As for `N#CC1=C(N)OC2=C(C(=O)CCC2)C1C1CC=CCC1` (centres undefined), the AC50 was > 42 µM (inactive).

With `CCn1nccc1C(=O)Nc1nccs1`, the AC50 is > 42 µM (inactive).

`COc1ccc(C2CC(c3cccs3)=NN2C(=O)c2ccccc2)cc1OC` (centres undefined): the AC50 is > 42 µM (inactive).

Turning to `CS(=O)(=O)N(CCc1ccccc1)CC(=O)NCc1cccnc1`, the AC50 is > 42 µM (inactive).

As to `CCOC(=O)CNC(=O)c1c(C)nn(C)c1Cl`, the AC50 was > 42 µM (inactive).

As to `Cc1ccc2nc3c(cc(C(=O)NCCN4CCOCC4)c(=N)n3CCCN3CCOCC3)c(=O)n2c1`, the AC50 was > 42 µM (inactive).

On to `O=c1/c(=C/c2ccco2)sc2nc(-c3ccccc3Br)nn12`, for which the AC50 is > 42 µM (inactive).

As for `O=C(CCl)N(Cc1cc(=O)[nH]c2ccccc12)c1ccccc1`, the AC50 was > 42 µM (inactive).

As to `Cc1ccc(/C(N)=N/OC(=O)/C=C/c2ccccc2)cc1`, the AC50 was > 42 µM (inactive).

With `C=CCNC(=O)c1onc(CSc2cccc(C)c2)c1C(=O)O`, the AC50 is > 42 µM (inactive).

Consider `COc1cc(CN2CCC(Oc3cc(C(=O)NC4CC4)ccc3OC)CC2)cc(OC)c1`, for which the concentration at half-maximal activity (AC50) was 16.9 µM.

On to `CN(C/C=C/c1ccccc1[N+](=O)[O-])Cc1ccccc1`, for which the AC50 is > 42 µM (inactive).

Turning to `O=C(c1cnn2c(C(F)(F)F)cc(-c3ccco3)nc12)N1CCCc2ccccc21`, the AC50 was > 42 µM (inactive).

`CS(=O)(=O)NCc1ccc(C(=O)NC2CCCCC2)cc1`: the AC50 was > 42 µM (inactive).

For `COc1ccc(/C=N\Nc2ccc([N+](=O)[O-])cc2)c(C(=O)O)c1OC`, the AC50 is > 42 µM (inactive).

Take `COc1cc(C(=O)Nc2ccc3c(c2)OCCO3)ccc1-n1cnnn1`: the AC50 was > 42 µM (inactive).

In the case of `COc1cccc(/C=C/C(=O)OCC(=O)Nc2ccc(Cl)cn2)c1`, the AC50 was > 42 µM (inactive).

With `CCC(c1nc2ccccc2c(=O)n1-c1nc2ccccc2s1)N1C(=O)c2ccccc2C1=O` (centres undefined), the AC50 was > 42 µM (inactive).

For `Cc1cccc(NC(=O)CSCC(=O)N2CCCc3ccccc32)c1`, the AC50 is > 42 µM (inactive).

Turning to `O=C(COc1ccccc1)Nc1cccc(-c2nnc(-c3ccccc3)o2)c1`, the AC50 was > 42 µM (inactive).

For `C=C1C2C[C@@]3([C@@H]1O)[C@@H](C[C@@H]2O)[C@@]12C4[C@@H]3C[C@@H]1[C@@](C)(CC[C@@H]2O)CN4CC`, the AC50 was > 42 µM (inactive).

For the compound `Cc1nc(CSc2nnc3scc(-c4ccccc4)n23)cs1`, the AC50 is > 42 µM (inactive).

For the compound `COc1ccc(C)cc1NC(=O)C12CCC(C)(C(=O)O1)C2(C)C` (centres undefined), the AC50 was > 42 µM (inactive).

Consider `O=C(N/N=C/c1cccs1)c1cncc(Br)c1`, for which the AC50 is > 42 µM (inactive).

For `CCOP(=O)(OCC)C(NC(=O)c1cccc([N+](=O)[O-])c1)C(Cl)(Cl)Cl` (centres undefined), the AC50 is > 42 µM (inactive).

For the compound `COc1ccc(C(=O)c2c(C)c3cc(C)ccc3n2CC(O)CN2CCOCC2)cc1` (centres undefined), the AC50 was > 110 µM (inactive).

Consider `CCC(C)NC(=O)CSc1nnc(-c2cc(-c3ccc(C)cc3)nc3ccccc23)n1N` (centres undefined), for which the AC50 is > 42 µM (inactive).

Consider `C/C(=N\NC(=O)c1ccc(Cl)cc1)c1cccnc1`, for which the AC50 is > 42 µM (inactive).

For the compound `CCOC(=O)c1oc2ccccc2c1COC(=O)CNC(=O)c1cccc(C)c1`, the AC50 is > 42 µM (inactive).

As to `COCCn1c(=NC(=O)c2ccc(S(=O)(=O)N3CCOCC3)cc2)sc2cc(S(N)(=O)=O)ccc21`, the AC50 is > 42 µM (inactive).

On to `COc1ccc(N2C(=O)CSC23CCCCC3)cc1`, for which the AC50 is > 42 µM (inactive).

As to `O=c1c2ccccc2nc(SCc2ccc([N+](=O)[O-])cc2)n1CCCO`, the AC50 was > 42 µM (inactive).

Regarding `Cc1ccc(S(=O)(=O)N2[C@@H](c3ccccc3)C(C(=O)O)=CC[C@H]2c2ccc(Cl)cc2)cc1`, the AC50 is > 42 µM (inactive).

For `O=C1OC(Cc2ccccn2)C(O)=C1C1=NCCCN1` (centres undefined), the AC50 was > 42 µM (inactive).

`O=C(CC(c1ccccc1)c1ccccc1)NCCOCc1ccccc1`: the AC50 is > 42 µM (inactive).

As for `Cn1c(=O)[nH]c(=O)c2c1nc(Sc1ccccc1)n2CCc1ccccc1`, the AC50 was > 42 µM (inactive).

Regarding `Cc1ccc(NC(=O)CCS(=O)(=O)c2ccc3nc(C)sc3c2)cc1`, the AC50 is > 42 µM (inactive).

As to `O=C(COC(=O)CSc1ccc([N+](=O)[O-])cc1)NC1CCCCCCC1`, the AC50 was > 42 µM (inactive).

For the compound `COc1cc(C(=O)NCCC2=CCCCC2)ccc1OC1CCN(C(C)=O)CC1`, the AC50 was > 42 µM (inactive).

Turning to `O=C(O)c1ccc(N=C2NC(=O)C(CO)(CO)S2)cc1`, the AC50 is > 42 µM (inactive).

Consider `CC(C)(C)n1nnnc1C(c1ccc(Cl)cc1)N(Cc1cccnc1)Cc1ccco1` (centres undefined), for which the AC50 was > 42 µM (inactive).

Consider `CCC(C)[C@H](NC(=O)OC(C)(C)C)C(=O)NCC1CCC(C(=O)N[C@@H](Cc2ccccc2)C(=O)O)CC1` (some centres undefined), for which the AC50 was > 42 µM (inactive).

As for `COc1ccc(CN2C(=O)C(=O)N(CC(N)=O)C2=O)cc1`, the AC50 is > 42 µM (inactive).

In the case of `COc1ccc(-c2cc(=O)c3cc(O)ccc3o2)cc1`, the AC50 is > 42 µM (inactive).

Regarding `CC1(C)CCC(=O)N2CC[C@H]3C[C@H](OC(=O)Nc4ccc(Br)cc4)C[C@@H]1[C@H]32`, the AC50 was > 42 µM (inactive).

Turning to `CNC(=O)c1ccccc1NC(=O)c1c(O)c2c([nH]c1=O)CCCC2`, the AC50 is > 42 µM (inactive).

With `O=C(Nc1nnc(-c2ccco2)o1)c1ccc(S(=O)(=O)N2CCCC2)cc1`, the AC50 was > 42 µM (inactive).

For `O=C(Nc1ccc(Cl)cc1)C1=Cc2ccccc2OC1`, the AC50 was > 42 µM (inactive).

For `COc1ccc([N+](=O)[O-])cc1NC(=O)C1CCCN1S(=O)(=O)c1cccs1` (centres undefined), the AC50 was > 42 µM (inactive).

Take `Cc1c(NC(=O)C(C)Sc2nnc(-c3ccccc3)o2)c(=O)n(-c2ccccc2)n1C` (centres undefined): the AC50 was > 42 µM (inactive).

Take `Cc1c(NC(=O)CN2C(=O)NC(C)(c3ccc(OC(F)F)cc3)C2=O)c(=O)n(-c2ccccc2)n1C` (centres undefined): the AC50 is > 42 µM (inactive).
